Tests used:
[1] = biological target: T1, Calcitonin receptor (Homo sapiens, UniProt P30988); assay type: cell membranes, Membrane; conditions: t47d; note: in other assays of this panel Not Active means under 50% inhibition at 10 µM
T1 sequence (P30988 whole entry): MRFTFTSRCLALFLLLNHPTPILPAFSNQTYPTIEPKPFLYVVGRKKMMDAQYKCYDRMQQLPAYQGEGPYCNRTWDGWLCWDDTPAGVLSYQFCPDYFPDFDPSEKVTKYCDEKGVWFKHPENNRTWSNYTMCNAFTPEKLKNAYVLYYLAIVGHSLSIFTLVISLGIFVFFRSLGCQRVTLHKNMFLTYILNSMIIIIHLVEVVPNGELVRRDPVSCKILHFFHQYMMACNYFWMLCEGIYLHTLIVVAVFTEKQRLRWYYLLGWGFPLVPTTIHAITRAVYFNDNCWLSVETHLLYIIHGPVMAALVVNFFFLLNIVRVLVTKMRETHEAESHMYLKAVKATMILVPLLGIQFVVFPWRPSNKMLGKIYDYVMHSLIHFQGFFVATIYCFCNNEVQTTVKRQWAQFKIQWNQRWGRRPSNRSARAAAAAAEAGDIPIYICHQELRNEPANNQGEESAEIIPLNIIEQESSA

[2] = biological target: T2, Alpha-2C adrenergic receptor (Homo sapiens, UniProt P18825); assay: DRUGMATRIX: Adrenergic Alpha-2C radioligand binding (ligand: [3H] MK-912); assay type: cell membranes, Sf9, Membrane; conditions: sf9
T2 sequence (P18825 whole entry): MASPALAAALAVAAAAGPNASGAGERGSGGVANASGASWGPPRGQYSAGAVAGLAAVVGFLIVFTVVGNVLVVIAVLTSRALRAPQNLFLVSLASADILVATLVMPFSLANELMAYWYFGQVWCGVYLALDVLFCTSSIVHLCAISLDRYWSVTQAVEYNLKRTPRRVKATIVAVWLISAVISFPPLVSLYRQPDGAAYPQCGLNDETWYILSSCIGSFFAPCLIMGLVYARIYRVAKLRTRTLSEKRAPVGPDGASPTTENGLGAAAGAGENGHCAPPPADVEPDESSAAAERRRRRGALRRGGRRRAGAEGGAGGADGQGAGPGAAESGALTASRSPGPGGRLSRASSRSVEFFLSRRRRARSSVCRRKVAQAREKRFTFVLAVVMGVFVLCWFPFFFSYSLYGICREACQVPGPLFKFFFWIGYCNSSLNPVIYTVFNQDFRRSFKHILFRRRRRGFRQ

[3] = DRUGMATRIX: Sigma2 radioligand binding (ligand: [3H] Ifenprodil); assay type: cell membranes, Rattus norvegicus, Wistar, Brain, Membrane; conditions: Not Active = under 50% inhibition at 10 µM
[4] = DRUGMATRIX: Glutamate, Kainate radioligand binding (ligand: [3H] Kainic acid); assay type: cell membranes, Rattus norvegicus, Wistar, Brain, Membrane; conditions: Not Active = under 50% inhibition at 10 µM
[5] = biological target: Receptor tyrosine-protein kinase erbB-2 (Homo sapiens, UniProt P04626); assay: biochemical; assay type: cell-based, Insect cells; conditions: insect cells;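 note: inhibition of HER2 kinase enzyme activity, measured with Poly(Glu:Tyr) as the phosphorylation substrate; in other assays of this panel Not Active means under 50% inhibition at 10 µM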
Receptor tyrosine-protein kinase erbB-2, sequence (P04626 whole entry): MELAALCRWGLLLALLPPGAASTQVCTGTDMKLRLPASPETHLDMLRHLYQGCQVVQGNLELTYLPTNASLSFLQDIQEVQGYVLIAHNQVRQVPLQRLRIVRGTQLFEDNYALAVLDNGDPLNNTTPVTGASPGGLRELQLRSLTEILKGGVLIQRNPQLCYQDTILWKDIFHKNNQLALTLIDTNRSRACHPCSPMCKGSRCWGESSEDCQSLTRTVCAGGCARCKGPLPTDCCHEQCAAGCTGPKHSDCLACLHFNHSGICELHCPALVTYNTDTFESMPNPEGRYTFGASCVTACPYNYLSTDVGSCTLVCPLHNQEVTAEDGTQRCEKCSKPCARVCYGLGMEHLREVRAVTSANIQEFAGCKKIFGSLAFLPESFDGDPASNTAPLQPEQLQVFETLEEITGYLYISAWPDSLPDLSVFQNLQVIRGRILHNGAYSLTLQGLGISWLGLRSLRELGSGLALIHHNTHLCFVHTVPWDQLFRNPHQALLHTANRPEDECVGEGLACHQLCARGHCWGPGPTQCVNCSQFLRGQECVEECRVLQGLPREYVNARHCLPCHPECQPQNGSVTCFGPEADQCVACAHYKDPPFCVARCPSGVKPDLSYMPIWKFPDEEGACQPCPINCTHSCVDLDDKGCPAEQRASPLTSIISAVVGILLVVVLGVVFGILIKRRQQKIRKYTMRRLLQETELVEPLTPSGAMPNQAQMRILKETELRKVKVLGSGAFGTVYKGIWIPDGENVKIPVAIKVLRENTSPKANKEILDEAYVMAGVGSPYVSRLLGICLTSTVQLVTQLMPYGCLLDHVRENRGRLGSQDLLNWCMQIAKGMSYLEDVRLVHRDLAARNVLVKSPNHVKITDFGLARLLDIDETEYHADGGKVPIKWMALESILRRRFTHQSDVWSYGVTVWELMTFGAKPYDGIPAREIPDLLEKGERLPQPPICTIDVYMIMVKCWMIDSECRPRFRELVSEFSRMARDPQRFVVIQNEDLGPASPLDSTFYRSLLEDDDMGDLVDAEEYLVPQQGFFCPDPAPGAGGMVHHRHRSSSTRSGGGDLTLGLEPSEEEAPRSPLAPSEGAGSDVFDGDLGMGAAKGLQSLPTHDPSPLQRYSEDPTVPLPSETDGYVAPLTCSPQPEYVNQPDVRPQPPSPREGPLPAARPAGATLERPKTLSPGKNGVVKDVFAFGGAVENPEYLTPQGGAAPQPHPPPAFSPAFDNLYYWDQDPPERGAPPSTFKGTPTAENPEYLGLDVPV

[6] = biological target: T3, Interstitial collagenase (Homo sapiens, UniProt P03956); assay type: tissue-based, Rheumatoid synovial fibroblasts;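 note: MMP-1 enzyme inhibition assay using a peptide substrate; in other assays of this panel Not Active means under 50% inhibition at 10 µM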
T3 sequence (P03956 whole entry): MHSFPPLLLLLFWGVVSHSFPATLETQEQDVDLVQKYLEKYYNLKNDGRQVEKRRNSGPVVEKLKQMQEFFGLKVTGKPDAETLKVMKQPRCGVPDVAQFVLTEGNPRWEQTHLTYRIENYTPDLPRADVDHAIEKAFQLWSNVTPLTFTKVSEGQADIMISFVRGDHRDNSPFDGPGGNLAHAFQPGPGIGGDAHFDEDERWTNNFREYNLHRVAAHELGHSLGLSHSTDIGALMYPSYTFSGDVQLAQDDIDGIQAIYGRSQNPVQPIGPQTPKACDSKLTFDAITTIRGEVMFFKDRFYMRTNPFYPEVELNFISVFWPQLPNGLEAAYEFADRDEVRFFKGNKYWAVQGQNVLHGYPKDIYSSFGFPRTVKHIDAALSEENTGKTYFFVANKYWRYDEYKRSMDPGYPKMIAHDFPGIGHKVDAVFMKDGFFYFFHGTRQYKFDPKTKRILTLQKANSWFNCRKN

O=C(O)Cc1ccc(-c2ccccc2)cc1 [FELBINAC]
Not Active: IC50 [1] | IC50 [2] | IC50 [3] | Ki [3] | IC50 [4] | Ki [4] | IC50 [5] | IC50 [6]

CCOC(=O)C1=C(C)NC(C)=C(C(=O)OC)C1c1cccc(Cl)c1Cl (configuration not stated) [FELODIPINE]
Not Active: IC50 [1] | IC50 [2] | IC50 [3] | Ki [3] | IC50 [4] | Ki [4] | IC50 [5] | IC50 [6]

CC(C(=O)O)c1ccc(-c2ccccc2)c(F)c1 (configuration not stated) [FLURBIPROFEN]
Not Active: IC50 [1] | IC50 [2] | IC50 [3] | Ki [3] | IC50 [4] | Ki [4] | IC50 [5] | IC50 [6]

Cc1cn[nH]c1 [FOMEPIZOLE]
Not Active: IC50 [1] | IC50 [2] | IC50 [3] | Ki [3] | IC50 [4] | Ki [4] | IC50 [5] | IC50 [6]

NC[C@@H]1O[C@H](O[C@H]2[C@@H](O)[C@H](O[C@@H]3[C@@H](O)[C@H](N)C[C@H](N)[C@H]3O[C@H]3O[C@H](CN)[C@@H](O)[C@H](O)[C@H]3N)O[C@@H]2CO)[C@H](N)[C@@H](O)[C@@H]1O [FRAMYCETIN]
Not Active: IC50 [1] | IC50 [2] | IC50 [3] | Ki [3] | IC50 [4] | Ki [4] | IC50 [5] | IC50 [6]

C[C@H]([C@](O)(Cn1cncn1)c1ccc(F)cc1F)S(C)(=O)=O [GENACONAZOLE]
Not Active: IC50 [1] | IC50 [2] | IC50 [3] | Ki [3] | IC50 [4] | Ki [4] | IC50 [5] | IC50 [6]

Cc1cnc(C(=O)NCCc2ccc(S(=O)(=O)NC(=O)NC3CCCCC3)cc2)cn1 [GLIPIZIDE]
Not Active: IC50 [1] | IC50 [2] | IC50 [3] | Ki [3] | IC50 [4] | Ki [4] | IC50 [5] | IC50 [6]

Cc1c(F)c(N2CCNC(C)C2)cc2c1c(=O)c(C(=O)O)cn2C1CC1 (configuration not stated) [GREPAFLOXACIN]
Not Active: IC50 [1] | IC50 [2] | IC50 [3] | Ki [3] | IC50 [4] | Ki [4] | IC50 [5] | IC50 [6]

COc1ccccc1OCC(O)CO (configuration not stated) [GUAIFENESIN]
Not Active: IC50 [1] | IC50 [2] | IC50 [3] | Ki [3] | IC50 [4] | Ki [4] | IC50 [5] | IC50 [6]

C[C@]12CCC(=O)C=C1CC[C@@H]1[C@@H]2[C@@H](O)C[C@@]2(C)[C@H]1CC[C@]2(O)C(=O)CO [HYDROCORTISONE]
Not Active: IC50 [1] | IC50 [2] | IC50 [3] | Ki [3] | IC50 [4] | Ki [4] | IC50 [5] | IC50 [6]

C/C=C\c1ccc(O)c(OC)c1 [ISOEUGENOL]
Not Active: IC50 [1] | IC50 [2] | IC50 [3] | Ki [3] | IC50 [4] | Ki [4] | IC50 [5] | IC50 [6]

NC[C@H]1O[C@H](O[C@H]2[C@H](O)[C@@H](O[C@H]3O[C@H](CO)[C@@H](O)[C@H](N)[C@H]3O)[C@H](N)C[C@@H]2N)[C@H](O)[C@@H](O)[C@@H]1O [KANAMYCIN]
Not Active: IC50 [1] | IC50 [2] | IC50 [3] | Ki [3] | IC50 [4] | Ki [4] | IC50 [5] | IC50 [6]

CC[C@H](C)C(=O)O[C@H]1C[C@@H](C)C=C2C=C[C@H](C)[C@H](CC[C@@H]3C[C@@H](O)CC(=O)O3)[C@H]21 [LOVASTATIN]
Not Active: IC50 [1] | IC50 [2] | IC50 [3] | Ki [3] | IC50 [4] | Ki [4] | IC50 [5] | IC50 [6]

CC(C(=O)O)c1ccc(CC2CCCC2=O)cc1 (configuration not stated) [LOXOPROFEN]
Not Active: IC50 [1] | IC50 [2] | IC50 [3] | Ki [3] | IC50 [4] | Ki [4] | IC50 [5] | IC50 [6]

Cc1cccc(Nc2ccccc2C(=O)O)c1C [MEFENAMIC ACID]
Not Active: IC50 [1] | IC50 [2] | IC50 [3] | Ki [3] | IC50 [4] | Ki [4] | IC50 [5] | IC50 [6]

CC(=O)O[C@]1(C(C)=O)CC[C@H]2[C@@H]3C=C(C)C4=CC(=O)CC[C@]4(C)[C@H]3CC[C@@]21C [MEGESTROL ACETATE]
Not Active: IC50 [1] | IC50 [2] | IC50 [3] | Ki [3] | IC50 [4] | Ki [4] | IC50 [5] | IC50 [6]

COc1ccccc1OCC(O)COC(N)=O (configuration not stated) [METHOCARBAMOL]
Not Active: IC50 [1] | IC50 [2] | IC50 [3] | Ki [3] | IC50 [4] | Ki [4] | IC50 [5] | IC50 [6]

CN(Cc1cnc2nc(N)nc(N)c2n1)c1ccc(C(=O)N[C@@H](CCC(=O)O)C(=O)O)cc1 [METHOTREXATE]
Not Active: IC50 [1] | IC50 [2] | IC50 [3] | Ki [3] | IC50 [4] | Ki [4] | IC50 [5] | IC50 [6]

COC(=O)c1ccccc1O [METHYL SALICYLATE]
Not Active: IC50 [1] | IC50 [2] | IC50 [3] | Ki [3] | IC50 [4] | Ki [4] | IC50 [5] | IC50 [6]

Source: ChEMBL document CHEMBL1909046, “DrugMatrix in vitro pharmacology data”
